Experiments:
myeloma cells lines = test: MTT viability assay, myeloma cell lines; format: cell-based
U266 = test: MTT viability assay, U266; format: cell-based; settings: Homo sapiens, U-266, Multiple Myeloma, read-out: IC50 Avg ± s.d. (n = 3), U266
Description: Cell Lines: PC-9 cell line used was obtained from Sigma Aldrich and grown in RPMI 1640 medium with 10% fetal bovine serum and 1% penicillin/streptomycin. HCC4006, U266, MM1.s, and Beas-2B cell lines were obtained from ATCC and cultured in either RPMI 1640 or DMEM with 10% fetal bovine serum and 1% penicillin/streptomycin. All cell lines were also checked for mycoplasma every six months and subjected to short tandem repeat (STR) analysis for cell line validation. CRISPR Cas9: CRISPR Guide RNA 2 targeting ERO1α and CRISPR Guide RNA 4 were purchased from Genscript in the pLentiCRISPR V2 plasmid containing puromycin/ampicillin selection marker. Lentivirus was made from HEK 293T cells by co-transfection with GuideRNA of interest, pVSVG, and pPAX2 plasmids. […] Plate was then read on the BioTek Cytation 5 at 530/590 nm. […] Plate was then read at 570 nm. Treated wells were all compared to DMSO control wells to calculate percent growth inhibition and the IC50 was calculated using GraphPad (log(inhibitor) vs growth inhibition). […] Images were then quantified using ImageJ. […] Cells were aliquoted at 1 million cells per PCR tube in PBS and heated in Bio-Rad T100 thermal cycler at indicated temperatures (RT, 46° C., 48° C., 50° C., 52° C., 54° C., 56°, 58° C., and 60° C.) for 3 minutes and aggregation temperature was determined by western blot analysis. […]

CN(C)c1ccc(/C=C2\Oc3cc(O)ccc3C2=O)cc1 [Compound T151742]
IC50 (myeloma cells lines): 7 to 9 µM | IC50 (U266): 8.93 ± 1.13 µM

From patent US20250064773A1, “TARGETING ERO1 ALPHA WITH AURONE DERIVATIVES” (West Virginia University Board of Governors on behalf of …, priority 2021, published 2025)
